In brackets after ≈: the same amount, converted by molar mass.
System: HeLa
Experiment: Cytotoxicity against human HeLa cells
Format: functional, cell-based

In the case of O=C(O)CN[C@H](Cc1c[nH]c2ccccc12)C(=O)O [KONBAMIDIN], the IC50 is reported as 5.4 µg/mL (≈ 20.6 µM).

From ChEMBL document CHEMBL1150071, “Konbamidin, a new indole alkaloid from the Okinawan marine sponge Ircinia sp” (J Nat Prod, 1994)
